Key:
[1] = test system: Inflammation Gene Expression Panel (inflammation index); assay: Inflammation index from whole-blood Gene Expression Profile of RA patients under therapy; assay type: in vivo, human; details: for inflammation index compared to normal: clinically stable RA patients, 10 per treatment group, FIGS. 9-11, Remicade: all but one of the patients
Text: The values Ci and P(i) may be determined in a number of ways, so that the index I is informative of the pertinent biological condition. One way is to apply statistical techniques, such as latent class modeling, to the profile data sets to correlate clinical data or experimentally derived data, or other data pertinent to the biological condition. In this connection, for example, may be employed the software from Statistical Innovations, Belmont, Mass., called Latent Gold®. Alternatively, other simpler modeling techniques may be employed in a manner known in the art. The index function for inflammation may be constructed, for example, in a manner that a greater degree of inflammation (as determined by the profile data set for the Inflammation Gene Expression Panel included in Tables 1 and 2) correlates with a large value of the index function. In a simple embodiment, therefore, each P(i) may be +1 or −1, depending on whether the constituent increases or decreases with increasing inflammation. As discussed in further detail below, a meaningful inflammation index that is proportional to the expression, referred to herein as IR-105, was constructed as follows: ¼{IL1A}+¼{IL1B}+¼{TNF}+¼{INFG}[…],
FIG. 4A further illustrates the consistency of inflammatory gene expression, illustrated here with respect to 7 loci of (of the Inflammation Gene Expression Panel included in Tables 1 and 2), in a set of 44 normal, undiagnosed blood donors. For each individual locus is shown the range of values lying within ±2 standard deviations of the mean expression value, which corresponds to 95% of a normally distributed population. Notwithstanding the great width of the confidence interval (95%), the measured gene expression value (ΔCt)—remarkably—still lies within 10% of the mean, regardless of the expression level involved. As described in further detail below, for a given biological condition an index can be constructed to provide a measurement of the condition. This is possible as a result of the conjunction of two circumstances: (i) there is a remarkable consistency of Gene Expression Profiles with respect to a biological condition across a population and (ii) there can be employed procedures that provide substantially reproducible measurement of constituents in a Gene Expression Panel giving rise to a Gene Expression Profile, under measurement conditions wherein specificity and efficiencies of amplification for all constituents of the panel are substantially similar and which therefore provides a measurement of a biological condition. Accordingly, a function of the expression values of representative constituent loci of FIG. 4A is here used to generate an inflammation index value, which is normalized so that a reading of 1 corresponds to constituent expression values of healthy subjects, as shown in the right-hand portion of FIG. 4A.
FIG. 4C illustrates the use of the same index as FIG. 4B, where the inflammation median for a normal population of subjects has been set to zero and both normal and diseased subjects are plotted in standard deviation units relative to that median. An inflammation index value was determined for each member of a normal, undiagnosed population of 70 individuals (black bars). The resulting distribution of index values, shown in FIG. 4C, can be seen to approximate closely a normal distribution. Similarly, index values were calculated for individuals from two diseased population groups, (1) rheumatoid arthritis patients treated with methotrexate (MTX) who are about to change therapy to more efficacious drugs (e.g., TNF inhibitors)(hatched bars), and (2) rheumatoid arthritis patients treated with disease modifying anti-rheumatoid drugs (DMARDS) other than MTX, who are about to change therapy to more efficacious drugs (e.g., MTX). […] This figure thus illustrates the utility of an index to derived from Gene Expression Profile data to evaluate disease status and to provide an objective and quantifiable treatment objective. […]

[2] = test system: Inflammation Gene Expression Panel; assay: Quantitative RT-PCR gene expression in whole blood of treated RA patients relative to normal mean; assay type: in vivo, human; details: 22 patients pooled
Text: For measuring the amount of a particular RNA in a sample, methods known to one of ordinary skill in the art were used to extract and quantify transcribed RNA from a sample with respect to a constituent of a Gene Expression Panel. (See detailed protocols below. Also see PCT application publication number WO 98/24935 herein incorporated by reference for RNA analysis protocols). Briefly, RNA is extracted from a sample such as a tissue, body fluid, or culture medium in which a population of cells of a subject might be growing. For example, cells may be lysed and RNA eluted in a suitable solution in which to conduct a DNAse reaction. First strand synthesis may be performed using a reverse transcriptase. Gene amplification, more specifically quantitative PCR assays, can then be conducted and the gene of interest calibrated against an internal marker such as 18S rRNA (Hirayama et al., Blood 92, 1998: 46-52). Any other endogenous marker can be used, such as 28S-25S rRNA and 5S rRNA. Samples are measured in multiple replicates, for example, 3 replicates. In an embodiment of the invention, quantitative PCR is performed using amplification, reporting agents and instruments such as those supplied commercially by Applied Biosystems (Foster City, Calif.). Given a defined efficiency of amplification of target transcripts, the point (e.g., cycle number) that signal from amplified target template is detectable may be directly related to the amount of specific message transcript in the measured sample. Similarly, other quantifiable signals such as fluorescence, enzyme activity, disintegrations per minute, absorbance, etc., when correlated to a known concentration of target templates (e.g., a reference standard curve) or normalized to a standard with limited variability can be used to quantify the number of target templates in an unknown sample.
As part of a larger international study involving patients with rheumatoid arthritis, the subject was followed over a twelve-week period. The subject was enrolled in the study because of a failure to respond to conservative drug therapy for rheumatoid arthritis and a plan to change therapy and begin immediate treatment with a TNF-inhibiting compound. Blood was drawn from the subject prior to initiation of new therapy (visit 1). After initiation of new TNF-inhibiting therapy, blood was drawn at 4 weeks post change in therapy (visit 2), 8 weeks (visit 3), and 12 weeks (visit 4) following the start of new therapy. Blood was collected using the PAXgene Blood RNA System™, held at room temperature for two hours and then frozen at −30° C.
Frozen samples were shipped to the central laboratory at Source Precision Medicine, the assignee herein, in Boulder, Colo. for determination of expression levels of genes in the 48-gene inflammation gene expression panel included in Tables 1 and 2. The blood samples were thawed and RNA extracted according to the manufacturer's recommended procedure. RNA was converted to cDNA and the level of expression of the 48 inflammatory genes was determined. Expression results are shown for 11 of the 48 loci in FIG. 3. […] Similarly, gene expression levels at each of the subsequent physician visits for each locus are compared to the same normal average value. […] In each visit following the change in the therapy, the level of inflammatory gene expression for 10 of the 11 loci is closer to the cognate locus average previously determined for the normal (i.e., undiagnosed, healthy) patient set. […]

[3] = Clinical assessment of RA patients during therapy (DAS, SJC, TJ, MDAD, HAQ); assay type: in vivo, human; details: 22 RA patients pooled over both regimens, FIG. 23; for Disease Activity Score (DAS): baseline 6.51
[4] = human, in vivo; cited from earlier work
[5] = end of the study, 12 genes examined, FIG. 17

CN(Cc1cnc2nc(N)nc(N)c2n1)c1ccc(C(=O)N[C@@H](CCC(=O)O)C(=O)O)cc1 [methotrexate]
distribution of inflammation index values in comparison to the normal distribution ([1]; RA patients about to change therapy to more efficacious drugs, FIG. 4C): skewed upward
inflammation index compared to normal [1]: elevated compared to normal

anakinra [kineret]
number of genes still over-expressed to some extent [2, 5]: 7
number of genes transitioned to the under-expressed category [2, 5]: 4
expression of PTGS2 (COX2) versus normal ([2]; end of the study, FIG. 17): not statistically significantly different from normal
values of CD19 expression versus normals ([2]; from the start of the study until the end, FIG. 17): all under-expressed
relative expression of the genes overexpressed at start (11 of 12 genes) versus normals ([2]; week 4, normals n=69, FIG. 17): still over-expressed at week 4 but less so
joint counts, MD assessment and patient self-score over the course of the study [3]: all went down
Disease Activity Score (DAS) ([3]; after 4 weeks): 5.35
Disease Activity Score (DAS) ([3]; end of the study): 4.88

etanercept [Enbrel]
patients with inflammation index in the normal range ([1]; 10 clinically stable RA patients, FIG. 10): 80%
inflammation index compared to normal [1]: comes much closer to normal

infliximab [Remicade]
abnormally low inflammation index in two of the patients ([1]; 10 clinically stable RA patients, FIG. 11): suggesting an immunosuppressive response
inflammation index compared to normal [1]: at or below normal
association with serious infections [4]: associated with serious infections in some subjects

Reference: US7935482B2, “Gene expression profiling for identification monitoring and treatment of rheumatoid arthritis” (Source Precision Medicine, Inc., priority 2005, dated 2011)
